Experimental data published in patent US20200181089A1, “4-ANILINO-QUINOLINE COMPOUNDS AS ANTI-CANCER AGENTS” (INSERM (INSTITUT NATIONAL DE LA SANTÉ ET DE LA RECHERCHE …, priority 2016, published 2020).
Where two headings read alike, the source gives them in different places.

What was measured:
Type in all cases: cell-based
EZH2 transcription = assay: Ability to decrease EZH2 mRNA level in A375 (dose-response, quantitative PCR); details: Homo sapiens, A-375, 96 h; A375 cells, incubated 4 days; read-out: IC50 (concentration necessary to obtain 50% of EZH2 transcription activity)
Description: Typically, 30000-50000 cells were plated in six-well culture plates and incubated 24 h later with increasing concentration of NIK inhibitors or vehicle. Cells were incubated with the inhibitors for 4 days prior to harvesting for RNA extraction and PCR. Total RNA was isolated from cells using the RNAeasy minikit (Qiagen) according to the manufacturer's procedure. Reverse transcription was performed using the AMV reverse transcription system (Promega), and quantitative PCR was performed with Power Sybr green (Applied Biosystems, Life Technologies, Grand Island, N.Y.) following the manufacturer's instructions. The PCR was carried out on a Step One plus Real-Time PCR system (Applied Biosystems). All analyses were done in triplicate, and a melting curve analysis was performed to control for product quality and specificity. Expression levels were calculated using the comparative method of relative quantification, with SB34 as a normalizer. The data were analyzed for statistical significance using Student's t-test. The results are presented as the mean±SEM relative to the control. Primers were obtained from primer bank or primer depot (http://pga.mgh.harvard.edu/primerbank/, https://primerdepot.nci.nih.gov), and their specificity was verified using primer blast (http://www.ncbi.nlm.nih.gov/tools/primer-blast/).
Here IC50 represents the concentration necessary to obtain 50% of EZH2 transcription activity.

A375 cells = assay: A375 cell proliferation assay (trypan blue exclusion); details: Homo sapiens, A-375, treated/untreated cell number; for activity at 1 µM: A375, 1 μM; for activity at 10 µM: A375, 10 μM
Description: Cells were counted using a Malassez chamber. The average and standard deviation were calculated from triplicate experiments. Antiproliferative effects were evaluated by trypan blue exclusion assay. Briefly, cells were seeded into 12-well plate and grown in media supplemented with indicated compound at 1 or 10 μM for 48 h or 96 h. Cells were washed with PBS and detached by trypsinization, collected and colored by trypan blue. Dead and living cells were counted and proliferation was calculated as follow: Proliferation (%)=[(treated cell number/untreated cells number)*100].

normal human fibroblast = assay: Fibroblast viability assay (trypan blue exclusion); details: 96 h
Description: (§1) Cell viability effects were evaluated by trypan blue exclusion assay. Briefly, cells were seeded into 12-well plate and grown in media supplemented with indicated compound at 10 μM for 96 h. Cells were washed with PBS and detached by trypsinization, collected and colored by trypan blue. Dead and living cells were counted and cell viability was calculated as follow: Viability (%)=100−[(dead cell number/total cells)*100].

normal human melanocyte = assay: Melanocyte viability assay (trypan blue exclusion); details: 96 h
Description: as §1

[1] = 48 h, read-out: Proliferation (%) At 1 μM - 48 H
[2] = 96 h, read-out: Proliferation (%) At 1 μM - 96 H
[3] = 48 h, read-out: Proliferation (%) At 10 μM - 48 H
[4] = 96 h, read-out: Proliferation (%) At 10 μM - 96 H

| Structure (SMILES) | IC50 (EZH2 transcription) [µM] | activity at 1 µM (A375 cells; [1]) [%] | activity at 1 µM (A375 cells; [2]) [%] | activity at 10 µM (A375 cells; [3]) [%] | activity at 10 µM (A375 cells; [4]) [%] | Viability (%) at 10 μM Fibroblast (normal human fibroblast) [%] | Viability (%) at 10 μM Melanocyte (normal human melanocyte) [%] |
| --- | --- | --- | --- | --- | --- | --- | --- |
| COc1ccc(Nc2ccnc3cc(N4CCOCC4)ccc23)cc1 [Compound 13, N-(4-methoxyphenyl)-7-morpholinoquinolin-4-amine] | 15 |  |  |  |  |  |  |
| Oc1ccc(Nc2ccnc3cc(Cl)ccc23)cc1 [Compound 7, 4-((4-hydroxyphenyl)amino)-7-chloroquinolinium chloride] |  | 84.6 | 91.1 | 95.2 | 79.4 | 97.7 | 99.1 |
| COc1ccc(Nc2ccnc3cc(Cl)ccc23)c(OC)c1 [Compound 39, 7-chloro-N-(2,4-dimethoxyphenyl)quinolin-4-amine] |  | 88.3 | 34.3 | 18.1 | 13.6 | 100.0 | 99.5 |
| COc1cc(Nc2ccc(OC)c(OC)c2)c2ccc(Cl)cc2n1 [Compound 33, 7-chloro-N-(3,4-dimethoxyphenyl)-2-methoxyquinolin-4-amine] |  | 106 | 97.2 | 102 | 95.2 | 97.7 | 60.1 |
| COc1ccc(Nc2cc(OC)nc3cc(Cl)ccc23)cc1 [Compound 27, 7-chloro-2-methoxy-N-(4-methoxyphenyl)quinolin-4-amine] |  | 98.7 | 85.6 | 67.8 | 21.8 | 93.9 | 76.9 |
| COc1ccc(Nc2cc(N3CCN(C)CC3)nc3cc(Cl)ccc23)cc1 [Compound 31, 7-chloro-N-(4-methoxyphenyl)-2-(4-methylpiperazin-1-yl)quinolin-4-amine] |  | 106 | 83.3 | 37.6 | 3.39 | 29.6 | 33.1 |
| COc1ccc(Nc2ccnc3cc(Cl)ccc23)cc1OC [Compound 38, 7-chloro-N-(3,4-dimethoxyphenyl)quinolin-4-amine] |  | 90.8 | 46.9 | 33.5 | 15.7 | 93.3 | 99.2 |
| COc1cccc(Nc2ccnc3cc(Cl)ccc23)c1 [Compound 6, 4-((3-methoxyphenyl)amino)-7-chloroquinolinium chloride] | 15 |  |  |  |  |  |  |
| Cc1ccc(Nc2ccnc3cc(Cl)ccc23)cc1 [Compound 2, 4-((4-methylphenyl)amino)-7-chloroquinolinium chloride] | 10 |  |  |  |  |  |  |
| Oc1ccc(Nc2ccc3c(Nc4cc(F)cc(F)c4)ccnc3c2)cc1Cl [Compound 19, 2-chloro-4-((4-((3,5-difluorophenyl)amino)quinolin-7-yl)amino)phenol] |  | 74.7 | 74.9 | 0.4 | 0 |  |  |
| COc1ccc(Nc2ccnc3ccc(Cl)cc23)c(OC)c1 [Compound 37, 6-chloro-N-(2,4-dimethoxyphenyl)quinolin-4-amine] |  | 84 | 87.4 | 80.5 | 53 | 94.6 | 98.7 |
| COc1ccc(Nc2cc(OCCN3CCOCC3)nc3cc(Cl)ccc23)cc1OC [Compound 32, 7-chloro-N-(3,4-dimethoxyphenyl)-2-(2-morpholinoethoxy)quinolin-4-amine] |  | 96 | 84.5 | 100 | 82.2 | 99.4 | 98.6 |
| COc1ccc(Nc2cc(N3CCN(C)CC3)nc3cc(Cl)ccc23)cc1OC [Compound 29, 7-chloro-N-(3,4-dimethoxyphenyl)-2-(4-methylpiperazin-1-yl)quinolin-4-amine] |  | 89.6 | 87.6 | 67.2 | 4.8 | 41.6 | 91.2 |
| COCCOc1cc(Nc2ccnc3cc(Cl)ccc23)ccc1OC [Compound 35, 7-chloro-N-(4-methoxy-3-(2-methoxyethoxy)phenyl)quinolin-4-amine] |  | 104 | 85.3 | 84.7 | 79.9 | 99.5 | 99.1 |
| FC(F)Oc1ccc(Nc2ccnc3cc(Cl)ccc23)cc1 [Compound 34, 7-chloro-N-(4-(difluoromethoxy)phenyl)quinolin-4-amine] |  | 96 | 98.6 | 77.6 | 37.9 | 98.3 | 98.7 |
| COc1ccc(Nc2cc(N3CCOCC3)nc3cc(Cl)ccc23)cc1 [Compound 30, 7-chloro-N-(4-methoxyphenyl)-2-morpholinoquinolin-4-amine] |  | 88 | 73.2 | 87.2 | 37 | 96.4 | 94.2 |
| Oc1ccc(Nc2ccnc3cc(Cl)ccc23)cc1Cl [Compound 8, 4-((4-hydroxy-3-chlorophenyl)amino)-7-chloroquinolinium chloride] | 15 | 81.3 | 74 | 82.1 | 67.5 | 98.6 | 98.0 |
| FC(F)(F)Oc1ccc(Nc2ccnc3ccc(Cl)cc23)cc1 [Compound 36, 6-chloro-N-(4-(trifluoromethoxy)phenyl)quinolin-4-amine] |  | 105 | 97.7 | 49.7 | 9.89 | 92.1 | 73.4 |
| COc1ccc(Nc2cc(N3CCOCC3)nc3cc(Cl)ccc23)cc1OC [Compound 28, 7-chloro-N-(3,4-dimethoxyphenyl)-2-morpholinoquinolin-4-amine] |  | 98.4 | 87.8 | 92 | 82.8 | 95.7 | 99.1 |
| COc1cccc(Nc2ccc3c(Nc4cc(F)cc(F)c4)ccnc3c2)c1 [Compound 26, N^4-(3,5-difluorophenyl)-N^7-(3-methoxyphenyl)quinolin-4,7-diamine] |  | 54.9 | 9.9 | 0.4 | 0 |  |  |
